# Source: US6900200B2, “Tricyclic hydroxy carboxamides and derivatives thereof tocolytic oxytocin receptor antagonists” (Wyeth, priority 2001, dated 2005)
# Target: T1, human oxytocin receptor (Homo sapiens, UniProt P30559)
# T1 construct: host or cells: CHO cells, pcDNA3.1 vector
# T1 sequence (P30559 1-389): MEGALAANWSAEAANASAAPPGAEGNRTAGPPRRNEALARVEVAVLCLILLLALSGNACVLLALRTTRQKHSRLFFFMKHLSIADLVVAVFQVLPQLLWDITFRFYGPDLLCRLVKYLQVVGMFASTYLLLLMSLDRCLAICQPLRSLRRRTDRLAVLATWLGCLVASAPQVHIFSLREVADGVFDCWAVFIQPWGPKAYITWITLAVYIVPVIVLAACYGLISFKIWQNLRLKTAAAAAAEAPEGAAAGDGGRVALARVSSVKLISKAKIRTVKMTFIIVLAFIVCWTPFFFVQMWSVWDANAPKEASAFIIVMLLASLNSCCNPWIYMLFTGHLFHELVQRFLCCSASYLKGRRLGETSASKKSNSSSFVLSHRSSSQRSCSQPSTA
# Assay: Oxytocin binding in CHO cell membranes expressing human oxytocin receptors ([3H]oxytocin radioligand binding)
# Conditions: @ 100 nM, read-out: OT % inhibition @ 100 nM
# Description: Oxytocin Binding in Chinese Hamster Ovary Cell Membranes Expressing Human Oxytocin Receptors
# Chinese Hamster Ovary (CHO) cells stably transfected with the human oxytocin receptor (cf. Tanizawa et al., U.S. Pat. No. 5,466,584 (1995) to Rohto Pharmaceutical Co. Ltd., Osaka, Japan) were obtained from M. Thibonnier, Case Western Reserve University School of Medicine, Cleveland, Ohio.
# A. Passaging and Amplification of Cells
# CHO cells transfected with the human oxytocin receptors obtained from M. Thibonnier (pcDNA3.1 vector) are allowed to grow to confluency (approx. >90%) in T-150 flasks under sterile conditions, in a cell culture medium of F-12 Nutrient Mixture (HAM) with L-glutamine (Gibco Cat. #11765-054) containing 15 mM HEPES (Gibco Cat. #15630-080), 1% antibiotic/antimycotic (add 5 mL 100×, Gibco Cat. #15240-062 per 500 mL F-12), 400 μg/mL of Geneticin (add 4 mL of 50 mg/mL per 500 mL F-12) and 10% Fetal Bovine Serum (Qualified, heat inactivated, Gibco Cat. #16140-063). The medium is removed by aspiration and the cells are washed with 10 mL of Hank's Balanced Salt solution (Gibco Cat. #14175-095). The salt solution is removed by aspiration and the cells trypsinized with 5 mL of trypsin-EDTA (0.05% trypsin, 0.53 mM EDTA-4Na, Gibco Cat. #25300-070) for 1 min. The trypsin is removed by aspiration and the cells dislodged by tapping. Cell Culture medium (e.g. 30 mL for 1:30 split) is immediately added and mixed well to inactivate trypsin. 1 mL of detached cells is added to new culture flasks containing fresh Cell Culture medium (e.g. into 25 mL per T-150 flask), and mixed gently. The cells are incubated at 37° C. in 5% CO2. The medium is changed at 3 to 4 days interval (or as appropriate). The cells grow to confluency (approx. >75%-95%) within 7-8 days. All steps are done under sterile conditions.
# The cells are washed twice gently with Hank's Balanced Salt solution (e.g., use 10 mL per T-1 50 flask). The excess solution is removed and the cells bathed for 15-30 min. in an enzyme-free Cell Dissociation Buffer (e.g., use 8 mL Hank's Based, Gibco Cat. #13150-016 per T-150 flask) until cells are loosened. The contents are transferred to centrifuge tubes (50 mL size) kept in ice bath. All subsequent steps are done at 4° C. The tubes are centrifuged at 300×g for 15 min (1380 rpm on SORVAL, Model RT6000D, using rotor for 50 mL tubes). The supernatant is discarded and the cells suspended in homogenizing buffer (10 mM Tris-HCl containing 0.25 M sucrose and 1 mM EDTA, pH 7.4) ensuring that the volume of the buffer is about ten times the volume of the cell pellet. The cells are pooled into a centrifuge tube (50 mL) and homogenized with a Polytron at setting 6 for 10 sec. The homogenate is transferred into a Potter-Elvjehm homogenizer and homogenized with 3 strokes. The homogenate is centrifuged at 1500×g for 10 min at 4° C. (3100 rpm using SORVAL, model RT6000D, using rotor for 50 mL tubes). The pellet is discarded. The supernatant is centrifuged at 100,000×g for 60 min. at 4° C. (Beckman L8-80M ultracentrifuge; spin at 37,500 rpm with rotor type 70 Ti for 50 mL tubes; 38,000 rpm with type 80Ti for 15 mL tubes; or 35,800 rpm with rotor type 45Ti). The supernantant is discarded and the pellet suspended in 3 to 4 mL of Tris buffer (50 mM TRIS—HCl, pH 7.4). The protein content is estimated by the Bradford or Lowry method. The volume of the membrane suspension is adjusted with the membrane buffer (50 mM Tris-HCl containing 0.1% BSA and 0.1 mM PMSF) to give 3.0 mg/mL (or as appropriate) of protein. The membranes are aliquoted and stored at −70° C.
# C. Radioligand Binding Assay
# In wells of a 96-well format microtiter plate, is added 90, 110 or 130 μL (to make up a final volume of 200 μL) of assay buffer containing 50 mM of Tris-HCl (pH 7.4), […], 1 mg % aprotinin, 1 mg % leupeptin, 2 mg % 1,10-phenanthroline, 10 mg % trypsin inhibitor, and 0.1 mM PMSF. […]
row,Compound,inhibition at 0.1 µM [%]
1,"COc1ccccc1-c1ccc(C(=O)N2Cc3ccc(C(=O)N4CCN(CCO)CC4)n3Cc3ccccc32)cc1OC [Example 43, {10-[(2,2′-Dimethoxy[1,1′-biphenyl]-4-yl)carbonyl]-10,11-dihydro-5H-pyrrolo[2,1-c][1,4]benzodiazepin-3-yl}[4-(2-hydroxyethyl)-1-piperazinyl]methanone]",75
2,"COc1cc(C(=O)N2Cc3ccc(C(=O)N4CCN(CCO)CC4)n3Cc3ccccc32)ccc1-c1ccccc1C [Example 42, [4-(2-Hydroxyethyl)-1-piperazinyl]{10-[(2-methoxy-2′-methyl[1,1′-biphenyl]-4yl)carbonyl]-10,11-dihydro-5H-pyrrolo[2,1-c][1,4]benzodiazepin-3-yl}methanone]",89
3,"COc1ccccc1-c1ccc(C(=O)N2Cc3ccc(C(=O)N4CCN(CCO)CC4)n3Cc3ccccc32)cc1 [Example 47, [4-(2-Hydroxyethyl)-1-piperazinyl]{10-[(2′-methoxy[1,1′-biphenyl]-4-yl)carbonyl]-10,11-dihydro-5H-pyrrolo[2,1-c][1,4]benzodiazepin-3-yl}methanone]",55
4,"Cc1ccccc1-c1ccc(C(=O)N2Cc3ccc(C(=O)N4CCN(CCO)CC4)n3Cc3ccccc32)cc1C [Example 46, {10-[(2,2′-Dimethyl[1,1′-biphenyl]-4-yl)carbonyl]-10,11-dihydro-5H-pyrrolo[2,1-c][1,4]benzodiazepin-3-yl}[4-(2-hydroxyethyl)-1-piperazinyl]methanone]",97

# Same assay, conditions: value printed in parentheses, read-out: OT (IC50)
row,Compound,IC50 [nM]
1,"COc1cc(C(=O)N2Cc3ccc(C(=O)N(C)CC(O)CO)n3Cc3ccccc32)ccc1-c1ccccc1C(F)(F)F (centres unmarked) [Example 21, N-(2,3-Dihydroxypropyl)-10-{[2-methoxy-2′-trifluoromethyl-[1,1′-biphenyl]-4-yl]carbonyl}-N-methyl-10,11-dihydro-5H-pyrrolo[2,1-c][1,4]benzodiazepine-3-carboxamide]",1.73
2,"COc1ccccc1-c1ccc(C(=O)N2Cc3ccc(C(=O)N(C)CC(O)CO)n3Cc3ccccc32)cc1C (centres unmarked) [Example 14, 10-[(2′-Methoxy-2-methyl-[1,1′-biphenyl]-4-yl)carbonyl]-10,11-dihydro-5H-pyrrolo[2,1-c][1,4]benzodiazepine-3-carboxylic acid (2,3-dihydroxy-propyl)-methyl-amide]",1.9
3,"COC[C@@H](O)CN1CCN(C(=O)c2ccc3n2Cc2ccccc2N(C(=O)c2ccc(-c4ccccc4C(F)(F)F)c(C)c2)C3)CC1 [Example 9, [3-({4-[(2S)-2-Hydroxy-3-methoxypropyl]-1-piperazinyl}carbonyl)-5H-pyrrolo[2,1-c][1,4]benzodiazepin-10(11H)-yl][2-methyl-2′-trifluoromethyl-[1,1′-biphenyl]-4-yl]methanone]",26.7
4,"COc1cc(-c2ccccc2C(F)(F)F)c(Cl)cc1C(=O)N1Cc2ccc(C(=O)N(C)C[C@H](O)[C@@H](O)[C@H](O)[C@H](O)CO)n2Cc2ccccc21 [Example 20, 10-{[6-Chloro-3-methoxy-2′-trifluoromethyl-[1,1′-biphenyl]-4-yl]carbonyl}-N-methyl-N-[(2S,3R,4R,5R)-2,3,4,5,6-pentahydroxyhexyl]-10,11-dihydro-5H-pyrrolo[2,1-c][1,4]benzodiazepine-3-carboxamide]",1.09
